The values that follow come from PubChem BioAssay AID1745844 (Carcinogenic Potency Database (CPDB), 2022).

By TD50 is commonly meant the 50% point of the dose-response relation for the toxic effect studied.

Activity calls are given as the source filed them. No rule for the calls is given here.

The test system of this data set is rodent lifetime carcinogenesis bioassay, tumor incidence TD50. Nature of the data set: chronic cancer bioassays in animals – CPDB, compiled studies (AID 1745844).

Turning to `Cc1noc(NS(=O)(=O)c2ccc(N)cc2)c1C`, the TD50 runs as follows: (mouse, strain B6C3F1, females, in feed, site: any site (literature study), lesion: several types, types named in the paper, dosed 103 weeks, study length 104 weeks) 8180 mg/kg/day; (mouse, strain B6C3F1, females, in feed, site: liver, lesion: hepatocellular adenoma + hepatocellular carcinoma + neoplastic nodule, dosed 103 weeks, study length 104 weeks) 2650 mg/kg/day; (mouse, strain B6C3F1, females, in feed, site: liver, lesion: hepatocellular carcinoma, dosed 103 weeks, study length 104 weeks) 2650 mg/kg/day (inactive); (mouse, strain B6C3F1, females, in feed, site: lung, lesion: alveolar/bronchiolar adenoma + alveolar/bronchiolar carcinoma, dosed 103 weeks, study length 104 weeks) 11900 mg/kg/day; (mouse, strain B6C3F1, males, in feed, site: liver, lesion: hepatocellular adenoma + hepatocellular carcinoma + neoplastic nodule, dosed 103 weeks, study length 104 weeks) 6910 mg/kg/day; (mouse, strain B6C3F1, males, in feed, site: lung, lesion: alveolar/bronchiolar adenoma + alveolar/bronchiolar carcinoma, dosed 103 weeks, study length 104 weeks) 49500 mg/kg/day. Besides, the TD50 was 135 mg/kg/day (inactive) (rat, strain Fischer 344, males, in feed, site: any site (literature study), lesion: several types, types named in the paper, dosed 103 weeks, study length 105 weeks) and 26300 mg/kg/day (rat, strain Fischer 344, males, in feed, site: liver, lesion: hepatocellular adenoma + hepatocellular carcinoma + neoplastic nodule, dosed 103 weeks, study length 105 weeks). The carcinogen call is “negative (inactive)” (mouse, strain B6C3F1, males, in feed, site: any site (literature study), lesion: several types, types named in the paper, dosed 103 weeks, study length 104 weeks) and “negative (inactive)” (rat, strain Fischer 344, females, in feed, site: any site (literature study), lesion: several types, types named in the paper, dosed 103 weeks, study length 106 weeks).
For `CC(C)[N+](=O)[O-]`, the carcinogen call is “negative (inactive)” (rat, strain Sprague-Dawley, females, inhaled, site: any site (literature study), lesion: benign tumor, dosed 52 weeks, study length 52 weeks); “negative (inactive)” (rat, strain Sprague-Dawley, females, inhaled, site: any site (literature study), lesion: benign tumor, dosed 52 weeks, study length 95 weeks); “negative (inactive)” (rat, strain Sprague-Dawley, females, inhaled, site: any site (literature study), lesion: benign tumor, dosed 95 weeks, study length 95 weeks); “negative (inactive)” (rat, strain Sprague-Dawley, females, inhaled, site: any site (literature study), lesion: malignant tumor, dosed 52 weeks, study length 52 weeks); “negative (inactive)” (rat, strain Sprague-Dawley, females, inhaled, site: any site (literature study), lesion: malignant tumor, dosed 52 weeks, study length 95 weeks); “negative (inactive)” (rat, strain Sprague-Dawley, females, inhaled, site: any site (literature study), lesion: malignant tumor, dosed 95 weeks, study length 95 weeks). For the same molecule, the carcinogen call was “negative (inactive)” (rat, strain Sprague-Dawley, females, inhaled, site: liver, lesion: one or several types, types not named, dosed 52 weeks, study length 52 weeks); “negative (inactive)” (rat, strain Sprague-Dawley, females, inhaled, site: liver, lesion: one or several types, types not named, dosed 52 weeks, study length 95 weeks); “negative (inactive)” (rat, strain Sprague-Dawley, males, inhaled, site: any site (literature study), lesion: benign tumor, dosed 95 weeks, study length 95 weeks); “negative (inactive)” (rat, strain Sprague-Dawley, males, inhaled, site: any site (literature study), lesion: malignant tumor, dosed 52 weeks, study length 52 weeks); “negative (inactive)” (rat, strain Sprague-Dawley, males, inhaled, site: any site (literature study), lesion: malignant tumor, dosed 95 weeks, study length 95 weeks); “negative (inactive)” (rat, strain Sprague-Dawley, males, inhaled, site: liver, lesion: angioma, dosed 52 weeks, study length 95 weeks). The carcinogen call reads like this: (rat, strain Sprague-Dawley, males, inhaled, site: liver, lesion: angioma, dosed 95 weeks, study length 95 weeks) “negative (inactive)”; (rat, strain Sprague-Dawley, males, inhaled, site: liver, lesion: one or several types, types not named, dosed 52 weeks, study length 52 weeks) “negative (inactive)”. Further, the TD50 is, setting by setting: (rat, strain Sprague-Dawley, females, inhaled, site: liver, lesion: one or several types, types not named, dosed 95 weeks, study length 95 weeks) 293 mg/kg/day (inactive); (rat, strain Sprague-Dawley, males, inhaled, site: any site (literature study), lesion: benign tumor, dosed 52 weeks, study length 52 weeks) 9.06 mg/kg/day (inactive); (rat, strain Sprague-Dawley, males, inhaled, site: any site (literature study), lesion: benign tumor, dosed 52 weeks, study length 95 weeks) 7.78 mg/kg/day (inactive); (rat, strain Sprague-Dawley, males, inhaled, site: any site (literature study), lesion: malignant tumor, dosed 52 weeks, study length 95 weeks) 23.6 mg/kg/day (inactive).
Regarding `CC(=O)[O-].CC(=O)[O-].CC(=O)[O-].[Cr+3]`, the carcinogen call was “negative (inactive)” (mouse, strain Charles River CD1, females, in drinking water, site: any site (literature study), lesion: one or several types, types not named, dosed 145 weeks, study length 145 weeks); “negative (inactive)” (mouse, strain Charles River CD1, females, in drinking water, site: lung, lesion: one or several types, types not named, dosed 145 weeks, study length 145 weeks); “negative (inactive)” (mouse, strain Charles River CD1, males, in drinking water, site: any site (literature study), lesion: one or several types, types not named, dosed 139 weeks, study length 139 weeks); “negative (inactive)” (mouse, strain Charles River CD1, males, in drinking water, site: lung, lesion: one or several types, types not named, dosed 139 weeks, study length 139 weeks); “negative (inactive)” (rat, strain Long-Evans BLU:(LE), both sexes, in drinking water, site: liver, lesion: one or several types, types not named, dosed 182 weeks, study length 182 weeks). For the same molecule, the TD50 by setting is: (rat, strain Long-Evans BLU:(LE), both sexes, in drinking water, site: any site (literature study), lesion: malignant tumor, dosed 182 weeks, study length 182 weeks) 7.62 mg/kg/day (inactive); (rat, strain Long-Evans BLU:(LE), both sexes, in drinking water, site: any site (literature study), lesion: one or several types, types not named, dosed 182 weeks, study length 182 weeks) 1.61 mg/kg/day (inactive).
For the molecule `O=C(Nc1nc(-c2ccc([N+](=O)[O-])o2)cs1)C(F)(F)F`, the TD50 by setting is: (mouse, strain Swiss, females, in feed, site: any site (literature study), lesion: several types, types named in the paper, dosed 46 weeks, study length 55 weeks) 8.01 mg/kg/day; (mouse, strain Swiss, females, in feed, site: forestomach, lesion: several types, types named in the paper, dosed 46 weeks, study length 55 weeks) 9.98 mg/kg/day; (mouse, strain Swiss, females, in feed, site: forestomach, lesion: squamous-cell carcinoma, dosed 46 weeks, study length 55 weeks) 38.6 mg/kg/day; (mouse, strain Swiss, females, in feed, site: forestomach, lesion: squamous-cell papilloma, dosed 46 weeks, study length 55 weeks) 43.5 mg/kg/day; (rat, strain Sprague-Dawley, females, in feed, site: any site (literature study), lesion: several types, types named in the paper, dosed 46 weeks, study length 66 weeks) 5.58 mg/kg/day; (rat, strain Sprague-Dawley, females, in feed, site: mammary gland, lesion: adenocarcinoma, dosed 46 weeks, study length 66 weeks) 7.27 mg/kg/day. Further, the TD50 (rat, strain Sprague-Dawley, females, in feed, site: mammary gland, lesion: several types, types named in the paper, dosed 46 weeks, study length 66 weeks) was 6.79 mg/kg/day.
`O=C1CCC(=O)O1`: the carcinogen call is “negative (inactive)” (mouse, strain B6C3F1, females, by gavage, site: any site (literature study), lesion: several types, types named in the paper, dosed 103 weeks, study length 104 weeks); “negative (inactive)” (mouse, strain B6C3F1, males, by gavage, site: any site (literature study), lesion: several types, types named in the paper, dosed 103 weeks, study length 104 weeks); “negative (inactive)” (rat, strain Fischer 344, females, by gavage, site: any site (literature study), lesion: several types, types named in the paper, dosed 103 weeks, study length 105 weeks); “negative (inactive)” (rat, strain Fischer 344, males, by gavage, site: any site (literature study), lesion: several types, types named in the paper, dosed 103 weeks, study length 105 weeks). For the same molecule, the TD50 is, setting by setting: (mouse, strain B6C3F1, females, by gavage, site: lung, lesion: alveolar/bronchiolar adenoma + alveolar/bronchiolar carcinoma, dosed 103 weeks, study length 104 weeks) 4690 mg/kg/day; (rat, strain Fischer 344, females, by gavage, site: liver, lesion: hepatocellular adenoma + hepatocellular carcinoma + neoplastic nodule, dosed 103 weeks, study length 105 weeks) 1300 mg/kg/day.
